From EP2245032B1, “FOLATES, COMPOSITIONS AND USES THEREOF” (priority 2008, dated 2009)
Structures can show the parent of a compound that is named as a salt.

Assays:
[1] = Stability of the powder in sealed aluminium foil bag, purity and titre by HPLC after 6 and 12 months; assay type: physicochemical; conditions: airtight container, protected from light; for Starting values Purity / Starting values Titre: start
Description: The stability of the compounds listed in the following table, under powder form and in sealed aluminium foil bag, was tested, keeping the samples in airtight container, protected from light and measuring the purity and the titre thereof after 6 and 12 months.
In particular, the stability of the acid moiety was observed by HPLC, detecting the purity and titre thereof.

[2] = general knowledge stated in the introduction; cited from earlier work
[3] = after twelve months; US 6,441,168 (Example 1); 525600 min; cited from earlier work

Compound | After 6 months Purity [1] | After 6 months Titre [1] | After 12 months Purity [1] | After 12 months Titre [1] | Starting values Purity [1] | Starting values Titre [1] | solubility in water (in words) [2] | titre decrease [3]
Nc1nc2ncc(CNc3ccc(C(=O)N[C@@H](CCC(=O)O)C(=O)O)cc3)nc2c(=O)[nH]1 [Folic acid, N-[4-[[(2-amino-1,4-dihydro-4-oxo-6-pteridinyl)methyl]amino]benzoyl]-L-glutamic acid] | – | – | – | – | – | – | very slightly soluble in water | –
Nc1nc2ncc(CNc3ccc(C(=O)N[C@@H](CCC(=O)O)C(=O)O)cc3)nc2c(=O)[nH]1 [D-GAL folate, D-galactosamine L-folate] | 99.1 | 54.5 | 98.7 | 54.2 | 99.2 | 54.8 | – | –
CN1c2c(nc(N)[nH]c2=O)NCC1CNc1ccc(C(=O)NC(CCC(=O)O)C(=O)O)cc1 [5-methyl-(6S)-tetrahydrofolic acid calcium salts] | – | – | – | – | – | – | – | about 1%
CN1c2c(nc(N)[nH]c2=O)NCC1CNc1ccc(C(=O)N[C@@H](CCC(=O)O)C(=O)O)cc1 (stereo partly drawn) [D-GAL (6R,S)-5-MTHF, D-galactosamine 5-methyl-(6R,S)-tetrahydrofolate] | 98.9 | 55.2 | 98.7 | 55.3 | 99.1 | 55.5 | – | –

The next lines start with results.

After 6 months Purity [1] | After 6 months Titre [1] | After 12 months Purity [1] | After 12 months Titre [1] | Starting values Purity [1] | Starting values Titre [1] | Compound | solubility in water (in words) [2] | titre decrease [3]
98.9 | 55.0 | 99.0 | 54.8 | 99.1 | 55.2 | CN1c2c(nc(N)[nH]c2=O)NCC1CNc1ccc(C(=O)N[C@@H](CCC(=O)O)C(=O)O)cc1 (stereo partly drawn) [D-GLU 5-MTHF, D-glucosamine 5-methyl-(6R,S)-tetrahydrofolate] | – | –
99.0 | 55.4 | 98.5 | 55.1 | 99.3 | 55.7 | CN1c2c(nc(N)[nH]c2=O)NCC1CNc1ccc(C(=O)NC(CCC(=O)O)C(=O)O)cc1 [D-GLU (6S)-5-MTHF, D-glucosamine 5-methyl-(6S)-tetrahydrofolate] | – | –
98.8 | 54.3 | 98.7 | 54.0 | 99.1 | 54.6 | Nc1nc2ncc(CNc3ccc(C(=O)N[C@@H](CCC(=O)O)C(=O)O)cc3)nc2c(=O)[nH]1 [D-GLU folate, D-glucosamine L-folate] | – | –
